Experimental data reported in PubChem BioAssay (NCI).
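Interpolation was linear, between the two tested concentrations surrounding the appropriate level; five concentrations were tested over 48 hours in 96-well plates. Definition used: TGI = concentration required for complete inhibition of growth.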

What was measured:
Experiment in all cases: inhibition of tumour cell growth, NCI panel, 48 h
SK-MEL-5 melanoma = system: SK-MEL-5 melanoma
KM12 colon = system: KM12 colon
SF-539 CNS = system: SF-539 CNS
HOP-92 NSCLC = system: HOP-92 NSCLC
UO-31 renal = system: UO-31 renal
NCI-H226 lung = system: NCI-H226 lung
HCT-15 colon = system: HCT-15 colon
HCT-116 colon = system: HCT-116 colon
K-562 leukemia = system: K-562 leukemia
MALME-3M melanoma = system: MALME-3M melanoma
OVCAR-8 ovarian = system: OVCAR-8 ovarian
NCI/ADR-RES ovarian = system: NCI/ADR-RES ovarian
786-0 renal = system: 786-0 renal
MDA-MB-435 = system: MDA-MB-435

Structure (SMILES) | TGI (SK-MEL-5 melanoma) [µM] | TGI (KM12 colon) [µM] | TGI (SF-539 CNS) [µM] | TGI (HOP-92 NSCLC) [µM] | TGI (UO-31 renal) [µM] | TGI (NCI-H226 lung) [µM] | TGI (HCT-15 colon) [µM] | TGI (HCT-116 colon) [µM] | TGI (K-562 leukemia) [µM] | TGI (MALME-3M melanoma) [µM] | TGI (OVCAR-8 ovarian) [µM] | TGI (NCI/ADR-RES ovarian) [µM] | TGI (786-0 renal) [µM] | TGI (MDA-MB-435) [µM]
CCCCCCCCCCCCCCCCSCC(COC)COP(=O)([O-])OCC[N+](C)(C)C (stereo not given) | 25.2 | 2.45 | 29.7 | 5.18 | 20.3 | 9.24 | 10.3 | 18.7 | 28 | 29.4 | 22.3 | 30 | – | –
COc1cc2c(c(OC)c1OC)-c1ccc(SC)c(=O)cc1[C@@H](OC(C)=O)CC2 | – | > 48.5 | – | > 100 | > 52.5 | – | > 100 | > 100 | > 100 | > 100 | > 100 | – | > 100 | –
O=C(CC/C=C(/CS(=O)(=O)c1ccccc1)S(=O)(=O)c1ccccc1)c1ccccc1 | > 100 | > 100 | > 100 | > 100 | > 100 | > 100 | > 100 | > 100 | > 100 | – | > 100 | – | – | –
COC(=O)c1ccccc1C#CC#Cc1ccccc1C(=O)OC | > 10 | > 10 | > 10 | – | > 10 | > 10 | > 10 | > 10 | > 10 | > 10 | > 10 | > 10 | > 10 | > 10
C=C1C[C@@H](O)C[C@@]2(C)C[C@@H]3OC(=O)C(=C)[C@@H]3C[C@H]12 | 11.7 | 28.6 | 23.1 | 28.1 | 31.2 | 37.7 | 18.2 | 11.9 | > 100 | 13.4 | 46.6 | 28.4 | – | –
CC(=O)OCC1OC(n2cc(F)c(=O)[nH]c2=O)C(N)C(OC(C)=O)C1OC(C)=O (stereo not given) | > 100 | > 100 | > 100 | > 100 | > 100 | > 100 | > 100 | > 100 | > 100 | > 100 | > 100 | > 100 | – | –
O=C1CSc2nc3ccccc3n2/C=N\N1 | > 100 | > 100 | – | > 100 | > 100 | > 100 | > 100 | > 100 | > 100 | – | > 100 | > 100 | > 100 | > 100
Cc1cc(-c2[nH]c(C(=O)O)cc2I)on1 | > 100 | > 100 | – | > 100 | > 100 | – | > 100 | > 100 | > 100 | > 100 | 81.9 | > 100 | > 100 | > 100
COc1ccc(N2C(=Nc3ccccc3)SC(=N/S(=O)(=O)c3ccccc3)/C2=N\S(=O)(=O)c2ccccc2)cc1 | 31.9 | 88.7 | – | 42 | 55.3 | 56.8 | 31.8 | 28.2 | 44.1 | 53.9 | 39.6 | – | 64.8 | –
Cn1c(=O)c2c(nc3n(Cc4ccccc4)c(=O)c(NCCBr)cn23)n(C)c1=O | > 100 | > 100 | – | 36.2 | 36 | 63.1 | > 100 | 82 | > 100 | – | 33.8 | 60.2 | 37 | > 100
Nc1nc2c(c(=O)[nH]1)N(C=O)C(CNc1ccc(C(=O)N[C@@H](CCC(=O)O)C(=O)O)cc1)CN2 (stereo not given in full) | > 125 | > 125 | > 125 | > 125 | > 125 | > 125 | > 125 | > 125 | > 31.4 | > 125 | > 125 | > 125 | – | –
C/C(=N\NS(=O)(=O)c1ccccc1)c1ccccc1 | > 100 | > 100 | > 100 | > 100 | > 100 | > 100 | > 100 | > 100 | > 100 | > 100 | > 100 | > 100 | – | –
C=CCOCn1cnc2c(N)ncnc21 | > 100 | > 100 | > 100 | – | > 100 | > 100 | > 100 | > 100 | > 100 | > 100 | > 100 | > 100 | > 100 | > 100
O=C(NCCC(F)(F)C(F)(F)C(F)(F)C(F)(F)F)NC1OC(CO)C(O)C(O)C1O (stereo not given) | > 100 | > 100 | > 100 | > 100 | > 100 | – | > 100 | > 100 | > 100 | > 100 | – | > 100 | > 100 | > 100
CCOC(=O)c1sc2nc(SC)nc3c2c1NC(=O)CN3c1cccc(F)c1 | > 100 | > 100 | 15.7 | 55.6 | 35.1 | 31.7 | – | 53 | 93.3 | > 100 | 30.6 | – | – | > 100
CCOC(=O)c1cc(C(=O)c2ccccc2)n2nc(-c3ccc(Cl)cc3)ccc12 | 51.9 | 53.5 | – | 60.5 | 27.1 | 55.8 | > 100 | > 100 | > 100 | 46.3 | – | 81.8 | 33 | > 100
O=C1O/C(=C(\Br)c2cccc3ccccc23)c2ccccc21 | 51.1 | > 55.2 | > 100 | > 56.9 | > 56.1 | > 55.7 | > 65.6 | > 61.9 | > 68.4 | > 60.6 | > 62.3 | – | 31.4 | –
Cc1cc(O)c2c(c1O)C(=O)C13C(=C2O)C(=O)C2C(O)C1C1C(O)C3C(=O)C3=C(O)c4c(O)cc(C)c(O)c4C(=O)C321 (stereo not given) | 0.364 | 10.7 | 0.278 | – | 0.214 | 0.879 | 0.182 | 0.168 | 0.56 | 0.327 | 1.59 | 12.2 | – | –
